Measured values from patent publication US10519134B2, “Pyrazole compounds and methods of making and using same” (Lundbeck La Jolla Research Center, Inc., priority 2015, dated 2019).

How the values were obtained:
MAGL [1] = biological target: T1, MAGL (Mus musculus, UniProt O35678); assay: In vitro competitive activity-based protein profiling (mouse), MAGL gel band; format: biochemical; conditions: for inhibition at 1 µM: read-out: MAGL % inh. 1 μM; for IC50: mouse
T1 construct: Proteomes (mouse brain membrane fraction or cell lysates); from tissue; host or cells: mouse brain membrane fraction (or cell lysates)
T1 sequence (O35678 1-303): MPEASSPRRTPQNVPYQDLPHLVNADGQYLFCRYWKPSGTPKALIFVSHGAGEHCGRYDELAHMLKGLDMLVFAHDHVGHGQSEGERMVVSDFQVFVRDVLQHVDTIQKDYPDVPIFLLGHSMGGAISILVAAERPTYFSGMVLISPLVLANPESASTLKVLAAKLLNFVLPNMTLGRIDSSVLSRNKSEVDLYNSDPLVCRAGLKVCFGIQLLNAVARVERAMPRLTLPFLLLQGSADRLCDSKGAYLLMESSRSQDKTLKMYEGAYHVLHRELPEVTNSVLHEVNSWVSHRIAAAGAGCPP
Method in brief: (§1)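 Mouse brain membrane proteome or cell lysate (1.0 mg/mL total protein) was preincubated with varying inhibitor concentrations for 30 min at 37 °C, then labelled for 30 min at 37 °C with FP-Rh or HT-01 (50 μM stock in DMSO). Activity was read as fluorescent band intensity after SDS-PAGE.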

FAAH = biological target: T2, FAAH (Mus musculus, UniProt O08914); assay: In vitro competitive activity-based protein profiling (mouse), FAAH gel band; format: biochemical; conditions: for inhibition at 1 µM: read-out: FAAH % inh. 1 μM; for IC50: mouse
T2 construct: Proteomes (mouse brain membrane fraction or cell lysates); from tissue; host or cells: mouse brain membrane fraction (or cell lysates)
T2 sequence (O08914 1-579): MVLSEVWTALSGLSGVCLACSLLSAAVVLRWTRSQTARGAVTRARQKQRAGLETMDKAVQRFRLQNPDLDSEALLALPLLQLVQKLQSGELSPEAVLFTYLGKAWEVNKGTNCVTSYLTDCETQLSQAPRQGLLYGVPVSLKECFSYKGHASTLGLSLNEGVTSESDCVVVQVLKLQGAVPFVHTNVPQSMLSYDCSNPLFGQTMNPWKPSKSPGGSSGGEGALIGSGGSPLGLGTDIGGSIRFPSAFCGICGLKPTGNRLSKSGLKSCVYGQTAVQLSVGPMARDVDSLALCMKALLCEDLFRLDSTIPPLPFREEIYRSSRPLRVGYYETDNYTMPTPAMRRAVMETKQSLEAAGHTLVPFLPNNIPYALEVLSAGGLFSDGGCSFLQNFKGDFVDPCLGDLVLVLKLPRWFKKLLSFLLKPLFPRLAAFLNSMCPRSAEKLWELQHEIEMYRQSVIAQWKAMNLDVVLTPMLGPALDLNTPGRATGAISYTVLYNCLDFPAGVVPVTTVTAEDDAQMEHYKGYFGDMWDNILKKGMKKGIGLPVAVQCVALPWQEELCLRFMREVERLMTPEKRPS
Method in brief: as §1

MAGL [2] = biological target: T1, MAGL; assay: Mouse brain proteomes from inhibitor treated mice (oral gavage, sacrificed 4 h after administration); format: in vivo; conditions: read-out: MAGL % inh. 5 mg/kg
Method in brief: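 Wild-type C57Bl/6J mice got compound by oral gavage in polyethylene glycol vehicle. Brain proteomes were prepared 4 h after dosing and analyzed for serine hydrolase activity.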

MAGL [3] = biological target: T3, MAGL (Homo sapiens, UniProt Q99685); assay: In vitro competitive activity-based protein profiling (human), MAGL gel band; format: biochemical
T3 construct: Proteomes (human prefrontal cortex or cell membrane fractions); from tissue; host or cells: human prefrontal cortex (or cell membrane fractions)
T3 sequence (Q99685 1-303): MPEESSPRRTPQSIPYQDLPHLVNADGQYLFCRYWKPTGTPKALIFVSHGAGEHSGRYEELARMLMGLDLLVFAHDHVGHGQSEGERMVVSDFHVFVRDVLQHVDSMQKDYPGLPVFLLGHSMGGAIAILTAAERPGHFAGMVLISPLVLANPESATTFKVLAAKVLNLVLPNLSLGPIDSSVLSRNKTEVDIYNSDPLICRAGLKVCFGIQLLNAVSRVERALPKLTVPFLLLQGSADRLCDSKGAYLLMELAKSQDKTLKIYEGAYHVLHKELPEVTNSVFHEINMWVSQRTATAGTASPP
Method in brief: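 Human prefrontal cortex or cell membrane proteomes (1.0-2.0 mg/mL protein) preincubated with inhibitors 30 min at 37° C, then labelled with FP-Rh or JW912 probe 30 min at room temperature. Residual MAGL activity read as fluorescent gel-band intensity after SDS-PAGE.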

SMILES | inhibition at 1 µM (MAGL [1]) [%] | inhibition at 1 µM (FAAH) [%] | inhibition at 5 mg/kg (MAGL [2]) [%] | IC50 (MAGL [3]) [nM] | IC50 (MAGL [1]) [nM] | IC50 (FAAH) [nM]
CS(=O)(=O)Nc1ccn(C(=O)N2CCN(Cc3ccc(Cl)c(N4CCC(F)CC4)c3)CC2)n1 [Example 201, N-(1-(4-(4-chloro-3-(4-fluoropiperidin-1-yl)benzyl)piperazine-1-carbonyl)-1H-pyrazol-3-yl) methanesulfonamide] | ≥ 75 | 0 to 25 | ≥ 75 | ≤ 100 | – | –
CS(=O)(=O)Nc1ccn(C(=O)N2CCN(Cc3ccc(Cl)c(N4C5CCC4COC5)c3)CC2)n1 [Example 204, N-(1-(4-(3-(3-oxa-8-azabicyclo[3.2.1]octan-8-yl)-4-chlorobenzyl)piperazine-1-carbonyl)-1H-pyrazol-3-yl) methanesulfonamide] | ≥ 75 | 0 to 25 | 0 to 25 | ≤ 100 | 100 to 1000 | 1000 to 10000
CS(=O)(=O)Nc1ccn(C(=O)N2CCN(Cc3ccc(Cl)c(N4CCCC4)c3)CC2)n1 [Example 165, N-(1-(4-(4-chloro-3-(pyrrolidin-1-yl)benzyl)piperazine-1-carbonyl)-1H-pyrazol-3-yl) methanesulfonamide] | ≥ 75 | 0 to 25 | ≥ 75 | ≤ 100 | – | –
CC(=O)N1CC2CCC(C1)N2c1cc(C(F)(F)F)ccc1CN1CCN(C(=O)n2ccc(NS(C)(=O)=O)n2)CC1 [Example 207, N-(1-(4-(2-(3-acetyl-3,8-diazabicyclo[3.2.1]octan-8-yl)-4-(trifluoromethyl)benzyl)piperazine-1-carbonyl)-1H-pyrazol-3-yl) methanesulfonamide] | ≥ 75 | 0 to 25 | 0 to 25 | ≤ 100 | – | –
CS(=O)(=O)Nc1ccn(C(=O)N2CCC3(CCCN3Cc3ccc(C(F)(F)F)cc3N3CC4COCC4C3)CC2)n1 (stereo not shown) [Example 199, N-(1-(1-(2-(tetrahydro-1H-furo[3,4-c]pyrrol-5(3H)-yl)-4-(trifluoromethyl)benzyl)-1,8-diazaspiro[4.5]decane-8-carbonyl)-1H-pyrazol-3-yl) methanesulfonamide] | ≥ 75 | 0 to 25 | 25 to 50 | ≤ 100 | – | –
CC(=O)Nc1ccn(C(=O)N2CCN(Cc3ccc(Cl)cc3N3CCN(S(C)(=O)=O)CC3)CC2)n1 [Example 52, N-(1-(4-(4-chloro-2-(4-(methylsulfonyl)piperazin-1-yl)benzyl)piperazine-1-carbonyl)-1H-pyrazol-3-yl)acetamide] | ≥ 75 | 0 to 25 | 0 to 25 | ≤ 100 | ≤ 100 | 1000 to 10000
CS(=O)(=O)Nc1ccn(C(=O)N2CCN(Cc3cc(N4CCCC4)cc(C(F)(F)F)c3)CC2)n1 [Example 156, N-(1-(4-(3-(pyrrolidin-1-yl)-5-(trifluoromethyl)benzyl)piperazine-1-carbonyl)-1H-pyrazol-3-yl) methanesulfonamide] | ≥ 75 | 0 to 25 | ≥ 75 | ≤ 100 | ≤ 100 | 1000 to 10000
CS(=O)(=O)Nc1ccn(C(=O)N2CCN(Cc3ccc(Cl)cc3N3CCC4(CC3)CN(S(C)(=O)=O)C4)CC2)n1 [Example 230, N-(1-(4-(4-chloro-2-(2-(methylsulfonyl)-2,7-diazaspiro[3.5]nonan-7-yl)benzyl)piperazine-1-carbonyl)-1H pyrazol-3-yl) methanesulfonamide] | ≥ 75 | 0 to 25 | – | ≤ 100 | – | –
CS(=O)(=O)Nc1ccn(C(=O)N2CCN(Cc3ccc(C(F)(F)F)cc3N3C4CCC3CN(S(C)(=O)=O)C4)CC2)n1 [Example 208, N-(1-(4-(2-(3-(methylsulfonyl)-3,8-diazabicyclo[3.2.1]octan-8-yl)-4-(trifluoromethyl)benzyl)piperazine-1-carbonyl)-1H-pyrazol-3-yl) methanesulfonamide] | ≥ 75 | 0 to 25 | – | ≤ 100 | – | –
CS(=O)(=O)Nc1ccn(C(=O)N2CCN(Cc3cc(N4CCCC4)ccc3Cl)CC2)n1 [Example 194, N-(1-(4-(2-chloro-5-(pyrrolidin-1-yl)benzyl)piperazine-1-carbonyl)-1H-pyrazol-3-yl) methanesulfonamide] | ≥ 75 | 0 to 25 | – | 100 to 1000 | – | –
CS(=O)(=O)Nc1ccn(C(=O)N2CCN(Cc3ccc(C(F)(F)F)cc3N3CCN(C(N)=O)CC3)CC2)n1 [Example 171, 4-(2-((4-(3-(methylsulfonamido)-1H-pyrazole-1-carbonyl)piperazin-1-yl)methyl)-5-(trifluoromethyl)phenyl)piperazine-1-carboxamide] | ≥ 75 | 0 to 25 | – | ≤ 100 | – | –
CC1CCCN1c1cc(CN2CCN(C(=O)n3ccc(NS(C)(=O)=O)n3)CC2)cc(C(F)(F)F)c1 (stereo not shown) [Example 191, N-(1-(4-(3-(2-methylpyrrolidin-1-yl)-5-(trifluoromethyl)benzyl)piperazine-1-carbonyl)-1H-pyrazol-3-yl) methanesulfonamide] | ≥ 75 | 0 to 25 | – | ≤ 100 | – | –
CS(=O)(=O)Nc1ccn(C(=O)N2CCN(Cc3ccc(C(F)(F)F)cc3N3CCC(C(N)=O)CC3)CC2)n1 [Example 250, 1-(2-((4-(3-(methylsulfonamido)-1H-pyrazole-1-carbonyl)piperazin-1-yl)methyl)-5-(trifluoromethyl)phenyl)piperidine-4-carboxamide] | ≥ 75 | 0 to 25 | – | ≤ 100 | – | –
CS(=O)(=O)Nc1ccn(C(=O)N2CCN(Cc3ccc(C(F)(F)F)cc3-c3ccc(C(F)(F)F)nc3)CC2)n1 [Example 212, N-(1-(4-(4-(trifluoromethyl)-2-(6-(trifluoromethyl)pyridin-3-yl)benzyl)piperazine-1-carbonyl)-1H-pyrazol-3-yl) methanesulfonamide] | ≥ 75 | 0 to 25 | – | 100 to 1000 | – | –
CS(=O)(=O)Nc1ccn(C(=O)N2CCN(Cc3ccc(C(F)(F)F)cc3N3CCC4(CC3)CCN(S(C)(=O)=O)C4)CC2)n1 [Example 234, N-(1-(4-(2-(2-(methylsulfonyl)-2,8-diazaspiro[4.5]decan-8-yl)-4-(trifluoromethyl)benzyl)piperazine-1-carbonyl)-1H-pyrazol-3-yl) methanesulfonamide] | ≥ 75 | 0 to 25 | – | ≤ 100 | – | –
CC(=O)N1CCN(c2cc(C(F)(F)F)ccc2CN2CCN(C(=O)n3ccc(NS(C)(=O)=O)n3)CC2)CC1 [Example 174, N-(1-(4-(2-(4-acetylpiperazin-1-yl)-4-(trifluoromethyl)benzyl)piperazine-1-carbonyl)-1H-pyrazol-3-yl) methanesulfonamide] | ≥ 75 | 0 to 25 | – | ≤ 100 | – | –
CC(=O)N1CC2CN(c3cc(CN4CCN(C(=O)n5ccc(NS(C)(=O)=O)n5)CC4)ccc3Cl)CC2C1 (stereo not shown) [Example 215, N-(1-(4-(3-(5-acetylhexahydro-pyrrolo[3,4-c]pyrrol-2(1H)-yl)-4-chlorobenzyl)piperazine-1-carbonyl)-1H-pyrazol-3-yl) methanesulfonamide] | ≥ 75 | 0 to 25 | – | 100 to 1000 | – | –
